Measurements reported in PMC8550792, “Evolution of kinase polypharmacology across HSP90 drug discovery” (Cell Chemical Biology, 2021).
Several values for one entry are separate records, joined by “and”; a condition that tells them apart may be missing. Equal values may be shown once. Read-outs that look alike come from different tables or passages of the source.

Key:
Assay type in all cases: biochemical
382 unique human kinases [1] = target: T1, 382 unique human kinases (Homo sapiens, UniProt P00533, L858R/T790M); assay: biochemical; conditions: EGFR (L858R, T790M), 10 uM; for remaining activity at 10 µM: read-out: % Enzyme Activity (relative to DMSO controls)
T1 construct: purchased Reaction Biology (HotSpot contract assay)

382 unique human kinases [2] = target: T2, 382 unique human kinases (Homo sapiens, UniProt O96013); assay: biochemical; conditions: PAK4, compound at 10 uM, duplicate values; for remaining activity at 10 µM: read-out: % Enzyme Activity (relative to DMSO controls)
T2 construct: purchased Reaction Biology (HotSpot contract assay)

382 unique human kinases [3] = target: T3, 382 unique human kinases (Homo sapiens, UniProt P07949, Y806H); assay: biochemical; conditions: RET (Y806H), 10 uM; for remaining activity at 10 µM: read-out: % Enzyme Activity (relative to DMSO controls)
T3 construct: purchased Reaction Biology (HotSpot contract assay)

382 unique human kinases [4] = target: T4, 382 unique human kinases (Homo sapiens, UniProt P15735); assay: biochemical; conditions: PHKg2, compound at 10 uM, duplicate values; for remaining activity at 10 µM: read-out: % Enzyme Activity (relative to DMSO controls)
T4 construct: purchased Reaction Biology (HotSpot contract assay)
T4 sequence (P15735 1-406): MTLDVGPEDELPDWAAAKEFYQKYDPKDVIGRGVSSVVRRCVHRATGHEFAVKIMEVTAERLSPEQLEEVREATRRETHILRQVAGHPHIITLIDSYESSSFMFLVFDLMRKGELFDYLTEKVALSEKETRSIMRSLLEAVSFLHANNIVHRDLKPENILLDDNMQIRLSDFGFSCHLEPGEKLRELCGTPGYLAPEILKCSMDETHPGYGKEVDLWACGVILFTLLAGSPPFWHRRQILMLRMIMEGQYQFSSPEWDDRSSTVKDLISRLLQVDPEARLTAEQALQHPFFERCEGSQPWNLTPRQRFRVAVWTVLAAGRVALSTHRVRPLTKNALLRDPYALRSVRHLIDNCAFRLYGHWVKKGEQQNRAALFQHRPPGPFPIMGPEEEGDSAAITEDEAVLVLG

382 unique human kinases [5] = target: T5, 382 unique human kinases (Homo sapiens, UniProt Q96RR4); assay: biochemical; conditions: kinase CAMKK2, compound 10 uM; for remaining activity at 10 µM: read-out: % Enzyme Activity (relative to DMSO controls)
T5 construct: purchased Reaction Biology (HotSpot contract assay)

382 unique human kinases [6] = target: T6, 382 unique human kinases (Homo sapiens, UniProt Q07002); assay: biochemical; conditions: CDK18/cyclin Y (PCTK3), compound at 10 uM, duplicate values; for remaining activity at 10 µM: read-out: % Enzyme Activity (relative to DMSO controls)
T6 construct: purchased Reaction Biology (HotSpot contract assay)

382 unique human kinases [7] = target: T7, 382 unique human kinases (Homo sapiens, UniProt P06241, Y531F); assay: biochemical; conditions: FYN (Y531F), [ATP] 5 µM, compound 10 uM; for remaining activity at 10 µM: read-out: % Enzyme Activity (relative to DMSO controls)
T7 construct: purchased Reaction Biology (HotSpot contract assay)

382 unique human kinases [8] = target: T8, 382 unique human kinases (Homo sapiens, UniProt P43405); assay: biochemical; conditions: SYK, 10 uM; for remaining activity at 10 µM: read-out: % Enzyme Activity (relative to DMSO controls)
T8 construct: purchased Reaction Biology (HotSpot contract assay)

382 unique human kinases [9] = target: T9, 382 unique human kinases (Homo sapiens, UniProt P51812, L608F); assay: biochemical; conditions: RSK2 (L608F), [ATP] 10 µM, compound 10 uM; for remaining activity at 10 µM: read-out: % Enzyme Activity (relative to DMSO controls)
T9 construct: purchased Reaction Biology (HotSpot contract assay)

382 unique human kinases [10] = target: T10, 382 unique human kinases (Homo sapiens, UniProt Q9UM73, S1206R); assay: biochemical; conditions: ALK (S1206R), [ATP] 20 µM, compound 10 uM; for remaining activity at 10 µM: read-out: % Enzyme Activity (relative to DMSO controls)
T10 construct: purchased Reaction Biology (HotSpot contract assay)

382 unique human kinases [11] = target: T11, 382 unique human kinases (Homo sapiens, UniProt P35916); assay: biochemical; conditions: FLT4/VEGFR3, [ATP] 5 µM, compound 10 uM; for remaining activity at 10 µM: read-out: % Enzyme Activity (relative to DMSO controls)
T11 construct: purchased Reaction Biology (HotSpot contract assay)

382 unique human kinases [12] = target: T12, 382 unique human kinases (Homo sapiens, UniProt O95819); assay: biochemical; conditions: HGK/MAP4K4, 10 uM; for remaining activity at 10 µM: read-out: % Enzyme Activity (relative to DMSO controls)
T12 construct: purchased Reaction Biology (HotSpot contract assay)

382 unique human kinases [13] = target: T13, 382 unique human kinases (Homo sapiens, UniProt Q13464); assay: biochemical; conditions: ROCK1, 10 uM; for remaining activity at 10 µM: read-out: % Enzyme Activity (relative to DMSO controls)
T13 construct: purchased Reaction Biology (HotSpot contract assay)

382 unique human kinases [14] = target: T14, 382 unique human kinases (Homo sapiens, UniProt P00519, G250E); assay: biochemical; conditions: ABL1 (G250E), [ATP] 10 µM, compound 10 uM; for remaining activity at 10 µM: read-out: % Enzyme Activity (relative to DMSO controls)
T14 construct: purchased Reaction Biology (HotSpot contract assay)

382 unique human kinases [15] = target: T15, 382 unique human kinases (Homo sapiens, UniProt P10721, D816E); assay: biochemical; conditions: c-Kit (D816E), [ATP] 50 µM, compound 10 uM; for remaining activity at 10 µM: read-out: % Enzyme Activity (relative to DMSO controls)
T15 construct: purchased Reaction Biology (HotSpot contract assay)

TRKA-TFG (TRK-T3) = target: T16, TRKA-TFG (TRK-T3) (Homo sapiens, UniProt P04629+Q92734); assay: HotSpot in vitro kinase radiometric assay
T16 construct: purchased Reaction Biology (HotSpot contract assay)

[16] = radiometric 10-point concentration-response, n = 3, read-out: in vitro biochemical IC50, TRKA-TFG

T2 sequence (O96013 whole entry): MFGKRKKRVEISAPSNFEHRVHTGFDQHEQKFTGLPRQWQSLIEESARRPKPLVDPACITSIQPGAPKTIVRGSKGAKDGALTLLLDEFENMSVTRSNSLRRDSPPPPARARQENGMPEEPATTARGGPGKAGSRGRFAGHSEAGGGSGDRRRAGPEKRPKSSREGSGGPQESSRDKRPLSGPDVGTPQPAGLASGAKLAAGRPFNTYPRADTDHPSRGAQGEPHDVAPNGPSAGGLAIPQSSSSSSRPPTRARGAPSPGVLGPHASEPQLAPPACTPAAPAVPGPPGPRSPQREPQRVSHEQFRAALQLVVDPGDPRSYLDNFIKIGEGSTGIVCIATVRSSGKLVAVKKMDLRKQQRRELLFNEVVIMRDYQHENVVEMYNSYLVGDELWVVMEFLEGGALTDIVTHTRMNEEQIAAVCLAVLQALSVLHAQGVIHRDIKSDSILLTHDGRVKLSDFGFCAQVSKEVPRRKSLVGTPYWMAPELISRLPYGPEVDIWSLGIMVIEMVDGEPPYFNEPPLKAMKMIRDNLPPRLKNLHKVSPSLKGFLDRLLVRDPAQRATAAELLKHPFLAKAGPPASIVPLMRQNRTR
T10 sequence (Q9UM73 19-1620 S1206R): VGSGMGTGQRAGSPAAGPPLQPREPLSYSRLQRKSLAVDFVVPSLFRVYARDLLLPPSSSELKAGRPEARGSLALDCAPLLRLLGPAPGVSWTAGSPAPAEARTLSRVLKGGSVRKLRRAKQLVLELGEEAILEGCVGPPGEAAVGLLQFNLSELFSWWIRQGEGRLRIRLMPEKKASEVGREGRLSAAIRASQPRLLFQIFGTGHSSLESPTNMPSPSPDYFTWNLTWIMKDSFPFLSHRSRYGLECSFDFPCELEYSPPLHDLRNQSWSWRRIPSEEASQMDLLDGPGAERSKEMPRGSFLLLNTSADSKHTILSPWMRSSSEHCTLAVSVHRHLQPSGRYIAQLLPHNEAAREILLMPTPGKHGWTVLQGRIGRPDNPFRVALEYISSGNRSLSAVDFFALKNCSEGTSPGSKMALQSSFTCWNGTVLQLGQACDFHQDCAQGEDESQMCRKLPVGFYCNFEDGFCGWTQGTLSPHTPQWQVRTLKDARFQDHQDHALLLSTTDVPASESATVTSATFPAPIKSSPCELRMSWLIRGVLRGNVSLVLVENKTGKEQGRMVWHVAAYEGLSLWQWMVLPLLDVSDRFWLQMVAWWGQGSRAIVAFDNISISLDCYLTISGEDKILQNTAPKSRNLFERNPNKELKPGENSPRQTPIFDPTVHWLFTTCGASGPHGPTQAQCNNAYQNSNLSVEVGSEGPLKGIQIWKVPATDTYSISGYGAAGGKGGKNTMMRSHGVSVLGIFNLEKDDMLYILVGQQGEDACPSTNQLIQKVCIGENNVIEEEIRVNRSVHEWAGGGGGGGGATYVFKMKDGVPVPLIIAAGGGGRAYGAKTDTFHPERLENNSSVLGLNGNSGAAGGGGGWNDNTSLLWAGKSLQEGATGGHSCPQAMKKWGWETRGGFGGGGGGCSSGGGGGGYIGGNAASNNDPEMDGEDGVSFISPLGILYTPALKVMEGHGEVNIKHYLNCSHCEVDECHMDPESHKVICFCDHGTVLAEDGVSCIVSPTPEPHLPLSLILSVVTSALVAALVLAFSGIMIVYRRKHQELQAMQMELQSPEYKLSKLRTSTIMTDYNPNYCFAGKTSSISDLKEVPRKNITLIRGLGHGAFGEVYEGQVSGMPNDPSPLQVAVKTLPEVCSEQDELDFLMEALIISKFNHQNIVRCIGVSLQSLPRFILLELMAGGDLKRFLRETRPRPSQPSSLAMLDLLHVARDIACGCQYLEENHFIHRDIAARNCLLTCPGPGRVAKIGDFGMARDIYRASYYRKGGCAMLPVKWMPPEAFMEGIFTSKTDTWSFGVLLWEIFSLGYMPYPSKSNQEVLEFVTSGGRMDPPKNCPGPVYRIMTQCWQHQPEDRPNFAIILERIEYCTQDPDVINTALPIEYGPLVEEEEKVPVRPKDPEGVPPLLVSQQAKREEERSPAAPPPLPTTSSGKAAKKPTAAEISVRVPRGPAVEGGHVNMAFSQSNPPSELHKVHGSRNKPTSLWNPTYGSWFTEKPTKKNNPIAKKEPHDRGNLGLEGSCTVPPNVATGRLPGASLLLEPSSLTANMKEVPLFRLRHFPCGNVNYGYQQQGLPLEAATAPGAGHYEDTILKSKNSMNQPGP
T3 sequence (P07949 29-1114 Y806H): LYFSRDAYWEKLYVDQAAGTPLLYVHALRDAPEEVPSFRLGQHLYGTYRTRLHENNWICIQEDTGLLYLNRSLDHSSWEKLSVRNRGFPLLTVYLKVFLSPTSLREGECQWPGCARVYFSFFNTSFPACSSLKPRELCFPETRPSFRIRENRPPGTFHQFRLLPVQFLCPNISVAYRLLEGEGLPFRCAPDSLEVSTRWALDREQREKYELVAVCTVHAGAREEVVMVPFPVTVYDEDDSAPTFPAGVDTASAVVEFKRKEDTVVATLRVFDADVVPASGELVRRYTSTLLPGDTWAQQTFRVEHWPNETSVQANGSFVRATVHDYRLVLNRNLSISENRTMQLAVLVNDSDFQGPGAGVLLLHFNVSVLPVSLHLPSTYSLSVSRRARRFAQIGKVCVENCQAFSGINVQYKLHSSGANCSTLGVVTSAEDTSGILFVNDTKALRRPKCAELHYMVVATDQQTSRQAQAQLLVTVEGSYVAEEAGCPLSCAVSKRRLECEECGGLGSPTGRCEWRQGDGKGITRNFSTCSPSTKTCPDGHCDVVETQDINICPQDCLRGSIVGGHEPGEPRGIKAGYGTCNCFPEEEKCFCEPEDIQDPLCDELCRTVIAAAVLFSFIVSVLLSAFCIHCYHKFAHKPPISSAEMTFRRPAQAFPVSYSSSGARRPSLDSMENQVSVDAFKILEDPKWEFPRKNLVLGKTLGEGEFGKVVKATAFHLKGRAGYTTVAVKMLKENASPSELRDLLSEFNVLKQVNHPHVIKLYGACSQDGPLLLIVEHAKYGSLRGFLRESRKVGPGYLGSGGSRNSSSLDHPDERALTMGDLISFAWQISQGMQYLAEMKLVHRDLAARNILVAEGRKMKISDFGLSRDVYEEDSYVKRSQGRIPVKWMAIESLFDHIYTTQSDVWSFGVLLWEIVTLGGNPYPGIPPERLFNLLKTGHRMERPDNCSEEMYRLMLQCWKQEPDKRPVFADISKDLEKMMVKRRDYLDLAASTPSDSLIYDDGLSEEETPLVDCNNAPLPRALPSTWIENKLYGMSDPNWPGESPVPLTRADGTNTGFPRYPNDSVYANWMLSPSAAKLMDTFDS
T7 sequence (P06241 whole entry Y531F): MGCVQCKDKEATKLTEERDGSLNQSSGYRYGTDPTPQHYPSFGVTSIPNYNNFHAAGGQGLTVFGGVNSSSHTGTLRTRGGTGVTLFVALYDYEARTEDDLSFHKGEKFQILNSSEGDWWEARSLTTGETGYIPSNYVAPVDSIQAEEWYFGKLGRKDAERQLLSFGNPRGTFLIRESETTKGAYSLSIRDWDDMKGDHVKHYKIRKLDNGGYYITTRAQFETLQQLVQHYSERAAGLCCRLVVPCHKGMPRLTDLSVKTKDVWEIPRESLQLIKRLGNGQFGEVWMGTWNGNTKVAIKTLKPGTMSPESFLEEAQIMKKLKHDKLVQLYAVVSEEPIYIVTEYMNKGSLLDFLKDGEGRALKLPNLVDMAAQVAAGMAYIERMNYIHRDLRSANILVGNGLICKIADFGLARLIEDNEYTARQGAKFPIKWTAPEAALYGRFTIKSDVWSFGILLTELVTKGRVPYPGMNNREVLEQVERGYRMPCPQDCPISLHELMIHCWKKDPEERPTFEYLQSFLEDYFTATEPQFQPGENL
T5 sequence (Q96RR4 whole entry): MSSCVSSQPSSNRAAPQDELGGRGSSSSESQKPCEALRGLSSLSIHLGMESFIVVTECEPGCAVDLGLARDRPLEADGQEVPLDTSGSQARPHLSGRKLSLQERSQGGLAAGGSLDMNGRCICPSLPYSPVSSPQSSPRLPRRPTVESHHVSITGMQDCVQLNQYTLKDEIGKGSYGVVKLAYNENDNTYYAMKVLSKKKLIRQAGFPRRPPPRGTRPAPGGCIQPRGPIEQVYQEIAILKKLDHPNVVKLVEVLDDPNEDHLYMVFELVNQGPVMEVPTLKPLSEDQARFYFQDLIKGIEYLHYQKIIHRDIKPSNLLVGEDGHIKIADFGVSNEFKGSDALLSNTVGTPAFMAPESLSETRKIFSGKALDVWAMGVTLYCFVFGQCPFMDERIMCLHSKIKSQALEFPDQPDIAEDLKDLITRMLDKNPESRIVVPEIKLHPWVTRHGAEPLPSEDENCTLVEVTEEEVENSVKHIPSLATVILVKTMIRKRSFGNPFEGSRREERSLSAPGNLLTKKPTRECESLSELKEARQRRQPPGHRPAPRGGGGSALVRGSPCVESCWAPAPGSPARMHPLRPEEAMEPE
T6 sequence (Q07002 whole entry): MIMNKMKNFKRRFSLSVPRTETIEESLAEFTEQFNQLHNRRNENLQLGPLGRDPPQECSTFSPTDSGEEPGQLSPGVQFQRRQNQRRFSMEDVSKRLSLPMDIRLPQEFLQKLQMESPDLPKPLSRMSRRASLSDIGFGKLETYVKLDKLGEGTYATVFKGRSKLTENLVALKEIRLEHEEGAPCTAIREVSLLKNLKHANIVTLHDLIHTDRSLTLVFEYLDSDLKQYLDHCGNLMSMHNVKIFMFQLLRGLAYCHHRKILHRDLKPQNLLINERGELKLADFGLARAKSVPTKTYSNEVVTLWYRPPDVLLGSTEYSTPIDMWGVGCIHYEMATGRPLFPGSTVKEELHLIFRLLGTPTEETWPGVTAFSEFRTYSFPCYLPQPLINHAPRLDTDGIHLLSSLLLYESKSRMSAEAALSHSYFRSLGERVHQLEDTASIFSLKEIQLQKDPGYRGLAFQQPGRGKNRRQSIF

Structure (SMILES) | remaining activity at 10 µM (382 unique human kinases [1]) | remaining activity at 10 µM (382 unique human kinases [2]) | remaining activity at 10 µM (382 unique human kinases [3]) | remaining activity at 10 µM (382 unique human kinases [4]) | remaining activity at 10 µM (382 unique human kinases [5]) | remaining activity at 10 µM (382 unique human kinases [6]) | remaining activity at 10 µM (382 unique human kinases [7]) | remaining activity at 10 µM (382 unique human kinases [8]) | remaining activity at 10 µM (382 unique human kinases [9]) | remaining activity at 10 µM (382 unique human kinases [10]) | remaining activity at 10 µM (382 unique human kinases [11]) | remaining activity at 10 µM (382 unique human kinases [12]) | remaining activity at 10 µM (382 unique human kinases [13]) | remaining activity at 10 µM (382 unique human kinases [14]) | remaining activity at 10 µM (382 unique human kinases [15]) | IC50 (TRKA-TFG (TRK-T3); [16]) | further results
CC(C)c1cc(-c2n[nH]c(=O)n2-c2ccc3c(ccn3C)c2)c(O)cc1O [Ganetespib (STA9090)] | 91.5% | 129% | 78.2% | 105% | 89.7% | 107% |  |  |  |  |  |  |  |  |  |  | 
CC(C)c1cc(-c2n[nH]c(=O)n2-c2ccc3c(ccn3C)c2)c(O)cc1O [Ganetespib] |  |  |  |  |  |  | 7.4% | 94% | 52.5% | 42% | 47.4% | 98.6% | 91.4% | 5.88% | 41.2% | 329 nM | HILLSLOPE (TRKA-TFG (TRK-T3); TRKA-TFG, single replicate curves): -1.03 and -1.06 and -1.02; IC50 (TRKA-TFG (TRK-T3); TRKA-TFG, single replicate curves, read-out: IC50): 328 nM and 331 nM and 326 nM; inhibition at 1 µM (TRKA-TFG (TRK-T3); read-out: % inhibition of TRKA-TFG at 1 μM, 1 μM, secondary screening): > 80%; inhibition at 10 µM (TRKA-TFG (TRK-T3); read-out: % inhibition of TRKA-TFG at 10 μM, 10 μM, kinome profiling): > 85%
CCNC(=O)c1noc(-c2cc(C(C)C)c(O)cc2O)c1-c1ccc(CN2CCOCC2)cc1 [Luminespib (AUY-922)] | 73.8% | 119% | 89.6% | 107% | 110% | 111% |  |  |  |  |  |  |  |  |  |  | % Enzyme Activity (relative to DMSO controls) (382 unique human kinases [1]): 61.22%; % Enzyme Activity (relative to DMSO controls) (382 unique human kinases [2]): 118.57%; % Enzyme Activity (relative to DMSO controls) (382 unique human kinases [3]): 88.98%; % Enzyme Activity (relative to DMSO controls) (382 unique human kinases [4]): 106.26%; % Enzyme Activity (relative to DMSO controls) (382 unique human kinases [5]): 109.01%; % Enzyme Activity (relative to DMSO controls) (382 unique human kinases [6]): 109.58%
CCNC(=O)c1noc(-c2cc(C(C)C)c(O)cc2O)c1-c1ccc(CN2CCOCC2)cc1 [Luminespib] |  |  |  |  |  |  | 24.2% | 102% | 108% | 104% | 96% | 110% | 96.4% | 5.9% | 76.2% | > 10000 nM | % Enzyme Activity (relative to DMSO controls) (382 unique human kinases [7]): 23.48%; % Enzyme Activity (relative to DMSO controls) (382 unique human kinases [8]): 101.25%; % Enzyme Activity (relative to DMSO controls) (382 unique human kinases [9]): 105.75%; % Enzyme Activity (relative to DMSO controls) (382 unique human kinases [10]): 100.88%; % Enzyme Activity (relative to DMSO controls) (382 unique human kinases [11]): 95.96%; % Enzyme Activity (relative to DMSO controls) (382 unique human kinases [12]): 108.63%; % Enzyme Activity (relative to DMSO controls) (382 unique human kinases [13]): 95.76%; % Enzyme Activity (relative to DMSO controls) (382 unique human kinases [14]): 5.81%; % Enzyme Activity (relative to DMSO controls) (382 unique human kinases [15]): 73.14%
